Measurements: the supplement of paper PMC9663587

Experiments:
[1] = compound: Cc1nn(C)c(COc2ccc(N3CCN(S(=O)(=O)N(C)C)CC3)cc2)c1-c1cccc2c(CCCOc3cccc4ccccc34)c(C(=O)O)n(CCN3CCOCC3)c12
[2] = compound: Cc1cc(Nc2ncc(Cl)c(Nc3ccccc3S(=O)(=O)C(C)C)n2)c(OC(C)C)cc1C1CCNCC1 [Ceritinib/LDK378]
[3] = compound: T1, CN(C)C(=O)c1cc2cnc(Nc3ccc(N4CCNCC4)cn3)nc2n1C1CCCC1 [LEE011/Ribociclib]
[4] = compound: COc1cccc2c1C(=O)c1c(O)c3c(c(O)c1C2=O)C[C@@](O)(C(=O)CO)C[C@@H]3O[C@H]1C[C@H](N)[C@H](O)[C@H](C)O1 [Doxorubicin]
[5] = compound: CCc1cnn2c(NCc3ccc[n+]([O-])c3)cc(N3CCCC[C@H]3CCO)nc12
[6] = compound: CS(=O)(=O)N1CCN(Cc2cc3nc(-c4cccc5[nH]ncc45)nc(N4CCOCC4)c3s2)CC1 [Pictilisib/GDC0941]
[7] = compound: CC(=O)c1c(C)c2cnc(Nc3ccc(N4CCN(CCOCCOCCOCCNC(=O)COc5cccc6c5C(=O)N(C5CCC(=O)NC5=O)C6=O)CC4)cn3)nc2n(C2CCCC2)c1=O [BSJ-03-123]; test: increase in dead-cell fraction, 72 h; higher = more death;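 further: breast cancer cell lines in 384-well plates, stained with Hoechst plus LIVE/DEAD far red dye and imaged, cells above an LDR intensity threshold counted dead, Hoechst-negative corpses included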
[8] = compound: CCN1CCN(Cc2ccc(Nc3ncc(F)c(-c4cc(F)c5nc(C)n(C(C)C)c5c4)n3)nc2)CC1; test: as above
[9] = compound: T1, LEE011/Ribociclib; test: as above
[10] = compound: CC(=O)c1c(C)c2cnc(Nc3ccc(N4CCNCC4)cn3)nc2n(C2CCCC2)c1=O; test: as above
[11] = compound: CCOc1cc2ncc(C#N)c(Nc3ccc(OCc4ccccn4)c(Cl)c3)c2cc1NC(=O)/C=C/CN(C)C [Neratinib/HKI272]; test: as above
[12] = compound: CN(C)C/C=C/C(=O)Nc1ccc(C(=O)N2CCC[C@@H](Nc3ncc(Cl)c(-c4c[nH]c5ccccc45)n3)C2)cc1 [THZ531]; test: as above
[13] = compound: C=CC(=O)Nc1ccc(C(=O)Nc2[nH]nc3c2CN(C(=O)N[C@H](CN(C)C)c2ccccc2)C3(C)C)cc1 [YKL-5-124]; test: as above
[14] = compound: CCc1cnn2c(NCc3ccc[n+]([O-])c3)cc(N3CCCC[C@H]3CCO)nc12; test: as above
[15] = compound: CN(C)C/C=C/C(=O)Nc1ccc(C(=O)Nc2cccc(Nc3ncc(Cl)c(-c4c[nH]c5ccccc45)n3)c2)cc1 [THZ1]; test: as above
[16] = compound: CN1CC[C@H](c2c(O)cc(O)c3c(=O)cc(-c4ccccc4Cl)oc23)[C@H](O)C1 [Flavopiridol]; test: as above
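Wherever GR50, 72 h is given: breast cancer and non-malignant breast epithelial cell lines, Deep Dye Drop or Dye Drop imaging, nine half-log doses, GR normalized to time-zero plates and DMSO-only controls.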

Cell Line: MDAMB415
- GR50, 72 h [1]: > 10 µM
- GR50, 72 h [2]: 3.76 µM
- GR50, 72 h [3]: 0.00974 µM
- GR50, 72 h [4]: 0.00521 µM
- GR50, 72 h [5]: 0.0203 µM
- GR50, 72 h [6]: 0.597 µM
- increase in dead-cell fraction ([7]; 0.001 µM): -0.001
- increase in dead-cell fraction ([7]; 0.003162 µM): 0.0018
- increase in dead-cell fraction ([7]; 0.01 µM): 0.0044
- increase in dead-cell fraction ([7]; 0.03162 µM): 0.0034
- increase in dead-cell fraction ([7]; 0.1 µM): 0.0066
- increase in dead-cell fraction ([7]; 0.3162 µM): 0.0057
- increase in dead-cell fraction ([7]; 1 µM): 0.0048
- increase in dead-cell fraction ([7]; 3.162 µM): 0.0092
- increase in dead-cell fraction ([7]; 10 µM): 0.0219
- increase in dead-cell fraction ([8]; 0.001 µM): 0.0027
- increase in dead-cell fraction ([8]; 0.003162 µM): 0.004
- increase in dead-cell fraction ([8]; 0.01 µM): 0.0062
- increase in dead-cell fraction ([8]; 0.03162 µM): 0.015
- increase in dead-cell fraction ([8]; 0.1 µM): 0.0137
- increase in dead-cell fraction ([8]; 0.3162 µM): 0.021
- increase in dead-cell fraction ([8]; 1 µM): 0.0176
- increase in dead-cell fraction ([8]; 3.162 µM): 0.0092
- increase in dead-cell fraction ([8]; 10 µM): 0.0164
- increase in dead-cell fraction ([9]; 0.001 µM): 0.0085
- increase in dead-cell fraction ([9]; 0.003162 µM): 0.0083
- increase in dead-cell fraction ([9]; 0.01 µM): 0.01
- increase in dead-cell fraction ([9]; 0.03162 µM): 0.0117
- increase in dead-cell fraction ([9]; 0.1 µM): 0.0179
- increase in dead-cell fraction ([9]; 0.3162 µM): 0.0109
- increase in dead-cell fraction ([9]; 1 µM): 0.0253
- increase in dead-cell fraction ([9]; 3.162 µM): 0.0174
- increase in dead-cell fraction ([9]; 10 µM): 0.0203
- increase in dead-cell fraction ([10]; 0.0003162 µM): 0.0016
- increase in dead-cell fraction ([10]; 0.001 µM): -0.0037
- increase in dead-cell fraction ([10]; 0.003162 µM): 0.0018
- increase in dead-cell fraction ([10]; 0.01 µM): -0.0004
- increase in dead-cell fraction ([10]; 0.03162 µM): 0.0059
- increase in dead-cell fraction ([10]; 0.1 µM): 0.0074
- increase in dead-cell fraction ([10]; 0.3162 µM): 0.0128
- increase in dead-cell fraction ([10]; 1 µM): 0.0178
- increase in dead-cell fraction ([10]; 3.162 µM): 0.0141
- increase in dead-cell fraction ([11]; 0.0003162 µM): -0.0004
- increase in dead-cell fraction ([11]; 0.001 µM): 0
- increase in dead-cell fraction ([11]; 0.003162 µM): 0.0031
- increase in dead-cell fraction ([11]; 0.01 µM): -0.0015
- increase in dead-cell fraction ([11]; 0.03162 µM): 0.0006
- increase in dead-cell fraction ([11]; 0.1 µM): 0.0036
- increase in dead-cell fraction ([11]; 0.3162 µM): 0.0023
- increase in dead-cell fraction ([11]; 1 µM): 0.0057
- increase in dead-cell fraction ([11]; 3.162 µM): 0.017
- increase in dead-cell fraction ([12]; 0.0001 µM): 0.003
- increase in dead-cell fraction ([12]; 0.0003162 µM): 0.0003
- increase in dead-cell fraction ([12]; 0.001 µM): 0.0038
- increase in dead-cell fraction ([12]; 0.003162 µM): 0.0023
- increase in dead-cell fraction ([12]; 0.01 µM): 0.0067
- increase in dead-cell fraction ([12]; 0.03162 µM): 0.0049
- increase in dead-cell fraction ([12]; 0.1 µM): 0.0372
- increase in dead-cell fraction ([12]; 0.3162 µM): 0.104
- increase in dead-cell fraction ([12]; 1 µM): 0.104
- increase in dead-cell fraction ([13]; 0.001 µM): 0.0047
- increase in dead-cell fraction ([13]; 0.003162 µM): -0.0002
- increase in dead-cell fraction ([13]; 0.01 µM): 0.0066
- increase in dead-cell fraction ([13]; 0.03162 µM): 0.0051
- increase in dead-cell fraction ([13]; 0.1 µM): 0.0109
- increase in dead-cell fraction ([13]; 0.3162 µM): 0.0176
- increase in dead-cell fraction ([13]; 1 µM): 0.0019
- increase in dead-cell fraction ([13]; 3.162 µM): 0.0153
- increase in dead-cell fraction ([13]; 10 µM): 0.0261
- increase in dead-cell fraction ([14]; 0.0001 µM): -0.001
- increase in dead-cell fraction ([14]; 0.0003162 µM): 0.0007
- increase in dead-cell fraction ([14]; 0.001 µM): -0.0017
- increase in dead-cell fraction ([14]; 0.003162 µM): 0.0007
- increase in dead-cell fraction ([14]; 0.01 µM): 0.0031
- increase in dead-cell fraction ([14]; 0.03162 µM): 0.0447
- increase in dead-cell fraction ([14]; 0.1 µM): 0.152
- increase in dead-cell fraction ([14]; 0.3162 µM): 0.12
- increase in dead-cell fraction ([14]; 1 µM): 0.154
- increase in dead-cell fraction ([15]; 0.0001 µM): 0.0048
- increase in dead-cell fraction ([15]; 0.0003162 µM): 0.0014
- increase in dead-cell fraction ([15]; 0.001 µM): 0.0046
- increase in dead-cell fraction ([15]; 0.003162 µM): -0.0013
- increase in dead-cell fraction ([15]; 0.01 µM): 0.0061
- increase in dead-cell fraction ([15]; 0.03162 µM): 0.0106
- increase in dead-cell fraction ([15]; 0.1 µM): 0.0295
- increase in dead-cell fraction ([15]; 0.3162 µM): 0.0604
- increase in dead-cell fraction ([15]; 1 µM): 0.13
- increase in dead-cell fraction ([16]; 0.0001 µM): 0.0065
- increase in dead-cell fraction ([16]; 0.0003162 µM): 0.0005
- increase in dead-cell fraction ([16]; 0.001 µM): 0.0075
- increase in dead-cell fraction ([16]; 0.003162 µM): 0.0004
- increase in dead-cell fraction ([16]; 0.01 µM): -0.0008
- increase in dead-cell fraction ([16]; 0.03162 µM): 0.002
- increase in dead-cell fraction ([16]; 0.1 µM): 0.0078
- increase in dead-cell fraction ([16]; 0.3162 µM): 0.0072
- increase in dead-cell fraction ([16]; 1 µM): 0.0932
